According to ChEMBL document CHEMBL4020763, “N-(1H-Pyrazol-3-yl)quinazolin-4-amines as a novel class of casein kinase 1δ/ε inhibitors: Synthesis, biological evaluation and molecular modeling studies” (Bioorg Med Chem Lett, 2017):

Columns and labels:
MIA PaCa-2 [1] = assay: Growth inhibition of human MIAPaCa2 cells at 100 uM by MTT assay relative to control; assay type: functional; conditions: read-out: GI
[2] = molecular target: Glycogen synthase kinase-3 (Sus scrofa, UniProt B2LUN4+I6LNT8); assay: Inhibition of porcine brain GSK-3 alpha/beta using YRRAAVPPSPSLSRHSSPHQpSEDEEE as substrate after 30 mins in presence of ATP by scintillation counting method
HCT-15 [3] = assay: Cytotoxicity against human HCT15 cells by MTT assay; assay type: functional, cell-based
[4] = molecular target: Glycogen synthase kinase-3 (Sus scrofa) (UniProt B2LUN4+I6LNT8); assay: Inhibition of porcine brain GSK-3 alpha/beta at 10 uM using YRRAAVPPSPSLSRHSSPHQpSEDEEE as substrate after 30 mins in presence of ATP by scintillation counting method relative to control
PANC-1 [5] = assay: Cytotoxicity against human PANC1 cells by MTT assay; assay type: functional, cell-based
BT-20 [6] = assay: Growth inhibition of human BT20 cells at 100 uM by MTT assay relative to control; assay type: functional; conditions: read-out: GI
[7] = Inhibition of M-phase starfish oocytes CDK1/cyclin B using histone H1 as substrate after 30 mins in presence of ATP by scintillation counting method; design: species or system Asteroidea
ZR-75-1 [8] = assay: Growth inhibition of human ZR-75-1 cells at 100 uM by MTT assay relative to control; assay type: functional; conditions: read-out: GI
A549 [9] = assay: Growth inhibition of human A549 cells at 100 uM by MTT assay relative to control; assay type: functional; conditions: read-out: GI
A549 [10] = assay: Cytotoxicity against human A549 cells by MTT assay; assay type: functional, cell-based
DU-145 = assay: Growth inhibition of human DU145 cells at 100 uM by MTT assay relative to control; assay type: functional; conditions: read-out: GI
[11] = molecular target: CDK9/cyclin T1 (Homo sapiens) (UniProt O60563+P50750); assay: Inhibition of recombinant human CDK9/cyclin T expressed in insect cells at 10 uM using YSPTSPSYSPTSPSYSPTSPSKKKK as substrate after 30 mins in presence of ATP by scintillation counting method relative to control
HCT-15 [12] = assay: Growth inhibition of human HCT15 cells at 100 uM by MTT assay relative to control; assay type: functional; conditions: read-out: GI
ZR-75-30 [13] = assay: Growth inhibition of human ZR-7530 cells at 100 uM by MTT assay relative to control; assay type: functional; conditions: read-out: GI
MCF7 [14] = assay: Cytotoxicity against human MCF7 cells by MTT assay; assay type: functional, cell-based
PANC-1 [15] = assay: Growth inhibition of human PANC1 cells at 100 uM by MTT assay relative to control; assay type: functional; conditions: read-out: GI
[16] = Inhibition of porcine brain CK1-delta/epsilon using CSK peptide as substrate after 30 mins in presence of ATP by scintillation counting method; design: species or system Sus scrofa
HEK293 = assay: Cytotoxicity against HEK293 cells by MTT assay; assay type: cell-based; conditions: Homo sapiens
[17] = molecular target: Dual specificity protein kinase CLK1 (Mus musculus) (UniProt P22518); assay: Inhibition of recombinant mouse GST-fused CLK1 expressed in Escherichia coli at 10 uM using RS peptide as substrate after 30 mins in presence of ATP by scintillation counting method relative to control
Chain of Dual specificity protein kinase CLK1 (Mus musculus) (P22518 whole entry, looked up, the tested form may be a part): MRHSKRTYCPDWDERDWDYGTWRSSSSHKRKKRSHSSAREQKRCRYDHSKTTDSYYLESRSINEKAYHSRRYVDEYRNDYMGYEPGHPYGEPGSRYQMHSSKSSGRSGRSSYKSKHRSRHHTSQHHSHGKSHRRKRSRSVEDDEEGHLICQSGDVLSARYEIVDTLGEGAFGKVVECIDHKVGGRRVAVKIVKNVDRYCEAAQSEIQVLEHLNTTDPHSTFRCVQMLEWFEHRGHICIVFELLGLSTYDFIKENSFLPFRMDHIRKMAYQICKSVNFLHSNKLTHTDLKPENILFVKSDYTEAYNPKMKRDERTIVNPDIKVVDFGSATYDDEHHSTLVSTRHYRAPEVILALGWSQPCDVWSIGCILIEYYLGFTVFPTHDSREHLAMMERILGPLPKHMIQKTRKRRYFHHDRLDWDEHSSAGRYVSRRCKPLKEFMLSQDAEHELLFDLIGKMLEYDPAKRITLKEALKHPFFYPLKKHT

MDA-MB-468 [18] = assay: Growth inhibition of human MDA-MB-468 cells at 100 uM by MTT assay relative to control; assay type: functional; conditions: read-out: GI
MCF7 [19] = assay: Growth inhibition of human MCF7 cells at 100 uM by MTT assay relative to control; assay type: functional; conditions: read-out: GI
MDA-MB-231 [20] = assay: Cytotoxicity against human MDA-MB-231 cells by MTT assay; assay type: functional, cell-based
ZR-75-30 [21] = assay: Cytotoxicity against human ZR-7530 cells by MTT assay; assay type: functional, cell-based
ZR-75-1 [22] = assay: Cytotoxicity against human ZR-75-1 cells by MTT assay; assay type: functional, cell-based
[23] = molecular target: Dual specificity protein kinase CLK1 (Mus musculus, UniProt P22518); assay: Inhibition of recombinant mouse GST-fused CLK1 expressed in Escherichia coli using RS peptide as substrate after 30 mins in presence of ATP by scintillation counting method
Chain of Dual specificity protein kinase CLK1 (P22518 whole entry, the tested form may be a part): as the sequence (P22518 whole entry, looked up, the tested form may be a part) above

[24] = molecular target: CDK2/Cyclin A2 (Homo sapiens) (UniProt P24941+P20248); assay: Inhibition of recombinant human CDK2/cyclin A at 10 uM using histone H1 as substrate after 30 mins in presence of ATP by scintillation counting method relative to control; assay type: protein-complex assay
Asteroidea = assay: Inhibition of M-phase starfish oocytes CDK1/cyclin B at 10 uM using histone H1 as substrate after 30 mins in presence of ATP by scintillation counting method relative to control
[25] = Growth inhibition of HEK293 cells at 100 uM by MTT assay relative to control; assay type: cell-based; conditions: human, read-out: GI
MDA-MB-231 [26] = assay: Growth inhibition of human MDA-MB-231 cells at 100 uM by MTT assay relative to control; assay type: functional; conditions: read-out: GI
[27] = molecular target: Cyclin-dependent kinase 5/CDK5 activator 1 (Homo sapiens) (UniProt Q00535+Q15078); assay: Inhibition of recombinant human CDK5/p25 expressed in Escherichia coli at 10 uM using histone H1 as substrate after 30 mins in presence of ATP by scintillation counting method relative to control
Chain of Cyclin-dependent kinase 5/CDK5 activator 1 (Homo sapiens) (Q00535 whole entry, the tested form may be a part): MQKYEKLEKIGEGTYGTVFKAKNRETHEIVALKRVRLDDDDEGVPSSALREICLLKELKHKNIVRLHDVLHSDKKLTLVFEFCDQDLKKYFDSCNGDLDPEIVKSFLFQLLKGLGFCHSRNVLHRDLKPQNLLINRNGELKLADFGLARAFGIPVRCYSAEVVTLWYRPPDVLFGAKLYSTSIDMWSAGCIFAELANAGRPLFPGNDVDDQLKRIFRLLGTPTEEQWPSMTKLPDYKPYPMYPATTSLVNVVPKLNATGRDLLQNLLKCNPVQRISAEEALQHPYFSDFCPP
Chain of Cyclin-dependent kinase 5/CDK5 activator 1 (Homo sapiens) (Q15078 99-307 partner limits assumed): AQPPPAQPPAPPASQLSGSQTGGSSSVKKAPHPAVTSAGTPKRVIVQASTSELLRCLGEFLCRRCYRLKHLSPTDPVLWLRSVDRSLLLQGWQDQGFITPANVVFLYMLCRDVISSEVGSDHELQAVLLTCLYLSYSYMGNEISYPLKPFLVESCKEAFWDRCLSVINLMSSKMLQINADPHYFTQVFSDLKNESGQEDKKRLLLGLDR

[28] = molecular target: Dual specificity tyrosine-phosphorylation-regulated kinase 1A (Homo sapiens) (UniProt Q13627); assay: Inhibition of recombinant full length human GST-fused DYRK1A expressed in Escherichia coli at 10 uM using RS peptide as substrate after 30 mins in presence of ATP by scintillation counting method relative to control
Sus scrofa = species on record: Sus scrofa; assay: Inhibition of porcine brain CK1-delta/epsilon at 10 uM using CSK peptide as substrate after 30 mins in presence of ATP by scintillation counting method relative to control
MDA-MB-468 [29] = assay: Cytotoxicity against human MDA-MB-468 cells by MTT assay; assay type: functional, cell-based
MIA PaCa-2 [30] = assay: Cytotoxicity against human MIAPaCa2 cells by MTT assay; assay type: functional, cell-based
BT-20 [31] = assay: Cytotoxicity against human BT20 cells by MTT assay; assay type: functional, cell-based
CDK2/Cyclin A2 = CDK2/Cyclin A2 (Homo sapiens, UniProt P24941); assay: Inhibition of recombinant human CDK2/cyclin A using histone H1 as substrate after 30 mins in presence of ATP by scintillation counting method; assay type: protein-complex assay

Structure (SMILES) | inhibition of growth at 100 µM (MIA PaCa-2 [1]) [%] | IC50 [2] [µM] | IC50 (HCT-15 [3]) [µM] | inhibition [4] [%] | IC50 (PANC-1 [5]) [µM] | inhibition of growth at 100 µM (BT-20 [6]) [%] | IC50 [7] [µM] | inhibition of growth at 100 µM (ZR-75-1 [8]) [%] | inhibition of growth at 100 µM (A549 [9]) [%] | IC50 (A549 [10]) [µM] | inhibition of growth at 100 µM (DU-145) [%] | inhibition [11] [%] | inhibition of growth at 100 µM (HCT-15 [12]) [%] | inhibition of growth at 100 µM (ZR-75-30 [13]) [%] | IC50 (MCF7 [14]) [µM] | inhibition of growth at 100 µM (PANC-1 [15]) [%] | IC50 [16] [µM] | IC50 (HEK293) [µM] | inhibition [17] [%] | IC50 (CDK2/Cyclin A2) [µM] | further results
COc1cc2ncnc(Nc3cc(-c4ccc(F)cc4)[nH]n3)c2cc1OC | > 50 | > 10 | > 100 | > 50 | 69.4 | > 50 | > 10 | > 50 | > 50 | > 100 | > 50 | > 50 | > 50 | > 50 | > 100 | > 50 | 1.4 | > 100 | > 50 | > 10 | inhibition of growth at 100 µM (MDA-MB-468 [18]): > 50%; inhibition of growth at 100 µM (MCF7 [19]): > 50%; IC50 (MDA-MB-231 [20]): > 100 µM; IC50 (ZR-75-30 [21]): > 100 µM; IC50 (ZR-75-1 [22]): > 100 µM; IC50 [23]: > 10 µM; inhibition [24]: > 50%; inhibition (Asteroidea): > 50%; inhibition at 100 µM [25]: > 50%; inhibition of growth at 100 µM (MDA-MB-231 [26]): > 50%; inhibition [27]: > 50%; inhibition [28]: > 50%; inhibition (Sus scrofa): > 50%; IC50 (MDA-MB-468 [29]): > 100 µM; IC50 (MIA PaCa-2 [30]): > 100 µM; IC50 (BT-20 [31]): > 100 µM
COc1ccc2c(c1)[nH]c1c(C)nccc12 [HARMINE] | – | > 10 | – | – | – | – | > 10 | – | – | – | – | – | – | – | – | – | – | – | – | > 10 | –
COc1cc2ncnc(Nc3cc(O)[nH]n3)c2cc1OC | > 50 | > 10 | > 100 | > 50 | > 100 | > 50 | > 10 | > 50 | > 50 | 74.9 | > 50 | > 50 | > 50 | > 50 | > 100 | > 50 | < 10 | 69.5 | > 50 | > 10 | inhibition of growth at 100 µM (MDA-MB-468 [18]): > 50%; inhibition of growth at 100 µM (MCF7 [19]): > 50%; IC50 (MDA-MB-231 [20]): > 100 µM; IC50 (ZR-75-30 [21]): > 100 µM; IC50 (ZR-75-1 [22]): > 100 µM; IC50 [23]: > 10 µM; inhibition [24]: > 50%; inhibition (Asteroidea): > 50%; inhibition at 100 µM [25]: > 50%; inhibition of growth at 100 µM (MDA-MB-231 [26]): > 50%; inhibition [27]: > 50%; inhibition [28]: > 50%; inhibition (Sus scrofa): > 50%; IC50 (MDA-MB-468 [29]): 86.7 µM; IC50 (MIA PaCa-2 [30]): > 100 µM; IC50 (BT-20 [31]): > 100 µM
COc1ccc(-c2cc(Nc3ncnc4cc(OC)c(OC)cc34)n[nH]2)cc1 | > 50 | > 10 | < 100 | > 50 | > 100 | > 50 | > 10 | > 50 | > 50 | > 100 | > 50 | > 50 | > 50 | > 50 | > 100 | > 50 | < 10 | > 100 | > 50 | > 10 | inhibition of growth at 100 µM (MDA-MB-468 [18]): > 50%; inhibition of growth at 100 µM (MCF7 [19]): > 50%; IC50 (MDA-MB-231 [20]): < 100 µM; IC50 (ZR-75-30 [21]): < 100 µM; IC50 (ZR-75-1 [22]): > 100 µM; IC50 [23]: > 10 µM; inhibition [24]: > 50%; inhibition (Asteroidea): > 50%; inhibition at 100 µM [25]: > 50%; inhibition of growth at 100 µM (MDA-MB-231 [26]): > 50%; inhibition [27]: > 50%; inhibition [28]: > 50%; inhibition (Sus scrofa): > 50%; IC50 (MDA-MB-468 [29]): 45.3 µM; IC50 (MIA PaCa-2 [30]): < 100 µM; IC50 (BT-20 [31]): > 100 µM
